Results as given in patent US11414431B2, “Substituted pyrazolo[1,5-a]pyrimidines as TYK2 inhibitors” (Nimbus Lakshmi, Inc., priority 2018, dated 2022).

Test system: IL-12 induced STAT4 phosphorlyation mediated by TYK2/JAK2
Assay: IL-12 Induced pSTAT4 in Human PBMC
Type: cell-based
Settings: 1.7 ng/mL IL-12 for 30 minutes
Method: Human PBMC were isolated from buffy coat and are stored frozen for assays as needed. […] 15 μL of compound or DMSO was added to the well at the desired concentrations and incubated at 1 hr at 37° C. 15 μL of stimulus (final concentration of 1.7 ng/mL IL-12) was added for 30 minutes prior to pSTAT4 and total STAT4 analysis using cell lysates prepared and analyzed by MSD reagents as per manufacturer protocol. The final DMSO concentration of compound in the assay was 0.1%.
The IL-12 induced pSTAT4 assay evaluates the inhibition of IL-12 induced STAT4 phosphorlyation mediated by TYK2/JAK2 (heterpdimeric complex).

Compound: CNc1cc(-c2cn([C@H]3CN(C)C[C@@H]3F)c3ncccc23)nc2c(C(=O)NC3CC[C@@H]3OC)cnn12 (stereo partly drawn) [Compound I-639, 5-(1-((3S,4S)-4-Fluoro-1-methylpyrrolidin-3-yl)-1H-pyrrolo[2,3-b]pyridin-3-yl)-N-((trans-1,2)-2-methoxycyclobutyl)-7-(methylamino)pyrazolo[1,5-a]pyrimidine-3-carboxamide]
- IC50 (0.5 h): < 0.1 µM

Compound: CNc1cc(-c2cn([C@@H]3CCOC[C@H]3O)c3ncccc23)nc2c(C(=O)N[C@H]3CC[C@@H]3F)cnn12 [Compound I-538]
- IC50: < 0.1 µM

Compound: CNc1cc(Nc2cccn([C@H]3CC[C@H]3O)c2=O)nc2c(C(=O)N[C@H]3CCC3(F)F)cnn12 [Compound I-287]
- IC50: < 0.1 µM

Compound: CNc1cc(-c2cnc3n(CCCN4CCOCC4)cccc2-3)nc2c(C(=O)NC3CC[C@@H]3OC)cnn12 (stereo in doubt) [Compound I-981, N-(2-methoxycyclobutyl)-7-(methylamino)-5-(7-(3-morpholinopropyl)-7H-pyrrolo[2,3-b]pyridin-3-yl)pyrazolo[1,5-a]pyrimidine-3-carboxamide]
- IC50 (0.5 h): 0.1 to 0.5 µM

Compound: CNc1cc(-c2cn([C@H]3C[C@@H](O)C3)c3ncccc23)nc2c(C(=O)N[C@H]3CC[C@@H]3F)cnn12 [Compound I-511]
- IC50: < 0.1 µM

Compound: CNc1cc(-c2cn([C@@H]3CCOC3)c3ncccc23)nc2c(C(=O)N[C@H]3CC[C@@H]3OC)cnn12 [Compound I-610]
- IC50: < 0.1 µM

Compound: CNc1cc(Nc2cccn(C3CCOCC3)c2=O)nc2c(C(=O)NC3CCC3(F)F)cnn12 (stereo not shown) [Compound I-309]
- IC50: < 0.1 µM

Compound: CNc1cc(-c2cn([C@@H]3CN(C)C[C@H]3OC)c3ncccc23)nc2c(C(=O)N[C@H]3CC[C@@H]3OC)cnn12 [Compound I-646]
- IC50: < 0.1 µM

Compound: CNc1cc(Nc2cccn([C@@H]3C[C@H]3F)c2=O)nc2c(C(=O)N[C@@H]3C[C@H]3OC)cnn12 [Compound I-135]
- IC50: < 0.1 µM

Compound: CNc1cc(Nc2cccn([C@@H]3C[C@H]3F)c2=O)nc2c(C(=O)NC3CCC3(F)F)cnn12 (stereo partly shown) [Compound I-274]
- IC50: < 0.1 µM

Compound: CNc1cc(Nc2cccn([C@H]3C[C@@H]3F)c2=O)nc2c(C(=O)N[C@H]3CC[C@H]3O)cnn12 [Compound I-12, 5-((1-((1S,2S)-2-Fluorocyclopropyl)-2-oxo-1,2-dihydropyridin-3-yl)amino)-N-((1S,2R)-2-hydroxycyclobutyl)-7-(methylamino)pyrazolo[1,5-a]pyrimidine-3-carboxamide]
- IC50 (0.5 h): < 0.1 µM

Compound: CNc1cc(-c2cn([C@H]3CC(=O)N(C)C3)c3ncccc23)nc2c(C(=O)NC3CC[C@@H]3OC)cnn12 (stereo partly shown) [Compound I-1017]
- IC50: 0.1 to 0.5 µM

Compound: CNc1cc(Nc2cccn([C@H]3CC[C@@H]3OC)c2=O)nc2c(C(=O)N[C@H]3CC[C@H]3O)cnn12 [Compound I-240]
- IC50: < 0.1 µM

Compound: CNc1cc(-c2cnc3n([C@H]4COC[C@@H]4O)cccc2-3)nc2c(C(=O)NC3CCC3(F)F)cnn12 (stereo partly shown) [Compound I-898]
- IC50: < 0.1 µM

Compound: CNc1cc(Nc2cccn([C@@H]3CCC[C@](C)(OC)C3)c2=O)nc2c(C(=O)N[C@@H]3C[C@@H]3F)cnn12 [Compound I-131]
- IC50: < 0.1 µM

Compound: CNc1cc(-c2cn(C3COC3)c3ncccc23)nc2c(C(=O)NC3CCC3(F)F)cnn12 (stereo not shown) [Compound I-673]
- IC50: < 0.1 µM

Compound: CNc1cc(Nc2cccn([C@H]3CC[C@H](OC)CC3)c2=O)nc2c(C(=O)N[C@@H]3CC[C@@]3(C)OC)cnn12 [Compound I-428]
- IC50: < 0.1 µM

Compound: CNc1cc(Nc2cccn(-c3ncccc3F)c2=O)nc2c(C(=O)NC3CC[C@H]3OC)cnn12 (stereo partly shown) [Compound I-265]
- IC50: < 0.1 µM

Compound: CNc1cc(Nc2cccn([C@@H]3C[C@H]3F)c2=O)nc2c(C(=O)NC3CC[C@@H]3F)cnn12 (stereo partly shown) [Compound I-151]
- IC50: < 0.1 µM

Compound: CNc1cc(-c2cn([C@@H]3COC[C@H]3O)c3ncccc23)nc2c(C(=O)NC3CCC3(F)F)cnn12 (stereo partly shown) [Compound I-692]
- IC50: < 0.1 µM

Compound: CNc1cc(Nc2cccn(-c3ccccn3)c2=O)nc2c(C(=O)NC3CCC3(F)F)cnn12 (stereo not shown) [Compound I-318]
- IC50: < 0.1 µM

Compound: CNc1cc(-c2cn([C@@H]3CCOC[C@@H]3OC)c3ncccc23)nc2c(C(=O)N[C@H]3CCC3(F)F)cnn12 [Compound I-703]
- IC50: < 0.1 µM
